Data from the METLIN SMRT retention time set (Domingo-Almenara et al. 2019).

Experiment: gradient 5% acetonitrile 3 min, to 50% in 2 min, to 85% in 15 min, held 3 min, 100 µL/min
Conditions: column: Zorbax Extend-C18 2.1 x 50 mm; eluents: water / acetonitrile, 0.1% formic acid
Outline: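 Data were gathered over 3 months by HPLC coupled to a quadrupole time-of-flight mass spectrometer, operated in positive and negative ionization mode. Mixtures of ~100 pure standards ran on a Zorbax Extend-C18 column (2.1 × 50 mm, 1.8 μm) at 100 μL/min, with water and acetonitrile each containing 0.1% formic acid and dead and dwell volumes of 40 μL and 900 μL. Retention time was read from adduct peaks picked by computer and checked manually.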

RP-LC retention time [s]	SMILES
609	O=C(Cn1nc2c(cc1=O)CCCC2)Nc1nc(-c2ccccn2)cs1
574	Cn1c(=O)c2cc(C(=O)N3CCN(C(=O)c4ccco4)CC3)sc2n(C)c1=O
795	Cc1cc(OCC(O)Cn2c(C3CC3)nc3ccccc32)cc(C)c1Cl (stereo not drawn)
678	COC(=O)C(NC(=O)Nc1cccn2c(C)nnc12)c1ccccc1 (stereo not drawn)
785	CCOc1ccc(CNS(=O)(=O)c2cc(-c3c(C)noc3NC(C)=O)ccc2OC)cc1
868	CSc1ccc(-c2nc3c(C)cccn3c2NC2CCCCC2)cc1
911	Cc1ccccc1CNC(=O)CN1C(=O)CCCc2cc(S(=O)(=O)N3CCCCC3)ccc21
843	CCOc1ccc(NC(=O)CN2C(=O)c3ccccc3Sc3ncccc32)cc1
577	O=C(CCn1ccnc1)N1CCC2(CCC(=O)N(CC3CC3)CC2)CC1
723	Cc1cccc(CN2CCN(CC(=O)NCc3ccc4c(c3)OCO4)C(=O)C2=O)c1
570	CCOCC(=O)NCCNC(=O)c1ccc(NC(C)=O)cc1
659	C=CCOC(=O)/C=C\C(=O)NC(N)=O
965	CCc1nnc(-c2ccc3ccn(CC(=O)N4CCN(c5ccc(Cl)cc5)CC4)c3c2)o1
724	COc1cc(NC(=O)CSc2nnnn2C)c2ncccc2c1
718	CCC(C)NC(=O)c1n[nH]c2c1CCCC2 (stereo not drawn)
777	CNC(=O)C1CCN(C2=NS(=O)(=O)C(c3ccc(C(C)C)cc3)=C2C)CC1
994	CN(Cc1ccccc1)C(=O)CN1c2ccc(F)cc2-c2ccccc2S1(=O)=O
749	CN(c1nccn2c(=O)n(CC(=O)Nc3ccc(F)cc3)nc12)C1CCCCC1
714	Cc1nc(CNC(=O)C2CCN(C(=O)Nc3ccc(C)c(Cl)c3)CC2)cs1

RP-LC retention time [s]	SMILES
1190	COc1ccc(-c2noc(-c3nnn4c3COC(c3ccc(Cl)cc3)C4)n2)cc1 (stereo not drawn)
829	CCc1noc2nc(C)n(CC(=O)NCc3ccc(C)cc3)c(=O)c12
744	O=S(=O)(c1ccc(Cl)cc1)N1CCC2(CC1)NCCN=C2NCc1ccc(F)cc1
851	O=C(Cn1nc2c3sc(N4CCCCC4)nc3ncn2c1=O)Nc1ccc(F)c(F)c1
647	CC1CCN(c2cc(-c3noc(C(=O)N4CCN(C5CCCCC5)CC4)n3)ccn2)CC1
932	Cc1ccc(F)c(NS(=O)(=O)c2cn(CC(C)C)c3ncccc23)c1
822	CCC(=O)N(C)c1nc2ccccc2n(CC(=O)Nc2c(C)cc(C)cc2C)c1=O
992	CCn1cc(C(=O)Nc2cc(OC)cc(OC)c2)c(S(=O)(=O)N2CCSCC2)n1
913	CN1C(=O)c2cccc(NC(=O)C3COc4ccccc4O3)c2C1=O (stereo not drawn)
881	COc1ccccc1OCC(=O)Nc1ccc2c(c1)N(C(=O)c1ccco1)CCC2
651	Cc1ccc(-n2ncc3c(N4CCN(CCO)CC4)ncnc32)cc1Cl
1180	CCN(CC)C(=O)c1cc2c(s1)N(CC1CC1)CCCC2
716	O=C(c1ccsc1)N1CCCC(c2nc(-c3ccccc3)n[nH]2)C1 (stereo not drawn)
1020	O=C(Nc1cnc(-c2cccc(Cl)c2)nc1)C1CCC1
840	COc1ccc(-c2nnc(-c3ccccc3)o2)cc1S(=O)(=O)N(C)C
948	Cc1cc(C(=O)Nc2nc(-c3cc4ccccc4o3)cs2)on1
981	Cn1nc(-c2nnc(-c3ccccc3)o2)c2c1CCN(S(=O)(=O)c1cccc(C(F)(F)F)c1)C2
693	Cc1nc(-c2ccc(C(=O)N(C)C)c(F)c2)no1
528	O=C(Cn1nc(-c2cccnc2)ccc1=O)Nc1nc2ccccc2[nH]1
